Source: the supplement of paper PMC10307832

Experiments:
Assay in all cases: relative viability (nuclei count vs DMSO), 5 days (fraction); higher = more cells survive
NCI-H1993 = system: NCI-H1993
Procedure, shortened: (§1)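 Medians of duplicate plates are given as relative viability. That measure is the nuclei count in treated wells divided by the count in vehicle wells. Counts were taken on 4× images of lung cancer cell lines in 1536-well plates, 5 days after pin-tool dosing the day after seeding with one drug alone or a fixed anchor-drug dose plus five library-drug doses (not always all listed) in √10 steps.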

NCI-H2342 = system: NCI-H2342
Procedure, shortened: as §1

ChaGo-K-1 = system: ChaGo-K-1
Procedure, shortened: as §1

NCI-H2405 = system: NCI-H2405
Procedure, shortened: as §1

NCI-H23 = system: NCI-H23
Procedure, shortened: as §1

NCI-H1734 = system: NCI-H1734
Procedure, shortened: as §1

NCI-H2228 = system: NCI-H2228
Procedure, shortened: as §1

NCI-H1975 = system: NCI-H1975
Procedure, shortened: as §1

HCC-78 = system: HCC-78
Procedure, shortened: as §1

NCI-H1355 = system: NCI-H1355
Procedure, shortened: as §1

LCLC-97TM1 = system: LCLC-97TM1
Procedure, shortened: as §1

NCI-H2126 = system: NCI-H2126
Procedure, shortened: as §1

NCI-H596 = system: NCI-H596
Procedure, shortened: as §1

HOP-62 = system: HOP-62
Procedure, shortened: as §1

NCI-H358 = system: NCI-H358
Procedure, shortened: as §1

NCI-H1623 = system: NCI-H1623
Procedure, shortened: as §1

NCI-H460 = system: NCI-H460
Procedure, shortened: as §1

PC-3 [JPC-3] = system: PC-3 [JPC-3]
Procedure, shortened: as §1

LK-2 = system: LK-2
Procedure, shortened: as §1

NCI-H1944 = system: NCI-H1944
Procedure, shortened: as §1

NCI-H1755 = system: NCI-H1755
Procedure, shortened: as §1

NCI-H1650 = system: NCI-H1650
Procedure, shortened: as §1

NCI-H727 = system: NCI-H727
Procedure, shortened: as §1

Q: How did the relative viability (NCI-H1993; first compound 0.253 µM) turn out when Nc1cccc2c1CN(C1CCC(=O)NC1=O)C2=O (centres undefined) [Lenalidomide] + N=C(N)NC(=N)NCCc1ccccc1 [Phenformin] (partner 250 µM) was run?
A: The relative viability was 0.429.

Q: And the relative viability (NCI-H1993; first compound 0.8 µM)?
A: Its relative viability is 0.553.

Q: What about the relative viability (NCI-H1993; first compound 2.53 µM) of the same compound?
A: Its relative viability is 0.551.

Q: What about the relative viability (NCI-H1993; first compound 8 µM) of the same compound?
A: The relative viability was 0.516.

Q: And the relative viability (NCI-H2342; first compound 0.253 µM)?
A: The relative viability was 0.637.

Q: And the relative viability (NCI-H2342; first compound 0.8 µM)?
A: Its relative viability is 0.551.

Q: What about the relative viability (NCI-H2342; first compound 2.53 µM) of the same compound?
A: Its relative viability is 0.628.

Q: And the relative viability (NCI-H2342; first compound 8 µM)?
A: Its relative viability is 0.505.

Q: What about the relative viability (ChaGo-K-1; first compound 0.253 µM) of the same compound?
A: The relative viability was 0.497.

Q: And the relative viability (ChaGo-K-1; first compound 0.8 µM)?
A: Its relative viability is 0.459.

Q: And the relative viability (ChaGo-K-1; first compound 2.53 µM)?
A: Its relative viability is 0.636.

Q: And the relative viability (ChaGo-K-1; first compound 8 µM)?
A: Its relative viability is 0.478.

Q: What about the relative viability (NCI-H2405; first compound 0.253 µM) of the same compound?
A: The relative viability was 0.382.

Q: And the relative viability (NCI-H2405; first compound 0.8 µM)?
A: Its relative viability is 0.416.

Q: And the relative viability (NCI-H2405; first compound 2.53 µM)?
A: The relative viability was 0.416.

Q: And the relative viability (NCI-H2405; first compound 8 µM)?
A: Its relative viability is 0.351.

Q: And the relative viability (NCI-H23; first compound 0.253 µM)?
A: Its relative viability is 0.733.

Q: What about the relative viability (NCI-H23; first compound 0.8 µM) of the same compound?
A: Its relative viability is 0.695.

Q: What about the relative viability (NCI-H23; first compound 2.53 µM) of the same compound?
A: The relative viability was 0.889.

Q: What about the relative viability (NCI-H23; first compound 8 µM) of the same compound?
A: The relative viability was 0.729.

Q: And the relative viability (NCI-H1734; first compound 0.253 µM)?
A: The relative viability was 0.39.

Q: What about the relative viability (NCI-H1734; first compound 0.8 µM) of the same compound?
A: Its relative viability is 0.413.

Q: And the relative viability (NCI-H1734; first compound 2.53 µM)?
A: The relative viability was 0.425.

Q: And the relative viability (NCI-H1734; first compound 8 µM)?
A: Its relative viability is 0.34.

Q: What about the relative viability (NCI-H2228; first compound 0.253 µM) of the same compound?
A: Its relative viability is 0.273.

Q: What about the relative viability (NCI-H2228; first compound 0.8 µM) of the same compound?
A: Its relative viability is 0.327.

Q: And the relative viability (NCI-H2228; first compound 2.53 µM)?
A: Its relative viability is 0.27.

Q: What about the relative viability (NCI-H2228; first compound 8 µM) of the same compound?
A: Its relative viability is 0.264.

Q: What about the relative viability (NCI-H1975; first compound 0.253 µM) of the same compound?
A: The relative viability was 0.402.

Q: And the relative viability (NCI-H1975; first compound 0.8 µM)?
A: The relative viability was 0.35.

Q: And the relative viability (NCI-H1975; first compound 2.53 µM)?
A: The relative viability was 0.474.

Q: What about the relative viability (NCI-H1975; first compound 8 µM) of the same compound?
A: The relative viability was 0.336.

Q: And the relative viability (HCC-78; first compound 0.253 µM)?
A: The relative viability was 0.825.

Q: What about the relative viability (HCC-78; first compound 0.8 µM) of the same compound?
A: The relative viability was 0.625.

Q: What about the relative viability (HCC-78; first compound 2.53 µM) of the same compound?
A: The relative viability was 0.909.

Q: What about the relative viability (HCC-78; first compound 8 µM) of the same compound?
A: Its relative viability is 0.448.

Q: And the relative viability (NCI-H1355; first compound 0.253 µM)?
A: Its relative viability is 0.485.

Q: What about the relative viability (NCI-H1355; first compound 2.53 µM) of the same compound?
A: Its relative viability is 0.462.

Q: What about the relative viability (NCI-H1355; first compound 8 µM) of the same compound?
A: The relative viability was 0.399.

Q: And the relative viability (LCLC-97TM1; first compound 0.253 µM)?
A: The relative viability was 0.378.

Q: What about the relative viability (LCLC-97TM1; first compound 0.8 µM) of the same compound?
A: Its relative viability is 0.409.

Q: What about the relative viability (LCLC-97TM1; first compound 2.53 µM) of the same compound?
A: Its relative viability is 0.485.

Q: What about the relative viability (LCLC-97TM1; first compound 8 µM) of the same compound?
A: The relative viability was 0.365.

Q: And the relative viability (NCI-H2126; first compound 0.253 µM)?
A: The relative viability was 0.552.

Q: What about the relative viability (NCI-H2126; first compound 0.8 µM) of the same compound?
A: The relative viability was 0.517.

Q: What about the relative viability (NCI-H2126; first compound 2.53 µM) of the same compound?
A: The relative viability was 0.531.

Q: What about the relative viability (NCI-H2126; first compound 8 µM) of the same compound?
A: The relative viability was 0.458.

Q: And the relative viability (NCI-H596; first compound 0.253 µM)?
A: Its relative viability is 0.752.

Q: What about the relative viability (NCI-H596; first compound 2.53 µM) of the same compound?
A: Its relative viability is 0.911.

Q: And the relative viability (NCI-H596; first compound 8 µM)?
A: Its relative viability is 0.635.

Q: What about the relative viability (HOP-62; first compound 0.253 µM) of the same compound?
A: Its relative viability is 0.611.

Q: And the relative viability (HOP-62; first compound 0.8 µM)?
A: Its relative viability is 0.733.

Q: And the relative viability (HOP-62; first compound 2.53 µM)?
A: Its relative viability is 0.736.

Q: What about the relative viability (HOP-62; first compound 8 µM) of the same compound?
A: Its relative viability is 0.705.

Q: And the relative viability (NCI-H358; first compound 0.253 µM)?
A: The relative viability was 0.338.

Q: What about the relative viability (NCI-H358; first compound 0.8 µM) of the same compound?
A: Its relative viability is 0.371.

Q: And the relative viability (NCI-H358; first compound 2.53 µM)?
A: Its relative viability is 0.405.

Q: What about the relative viability (NCI-H358; first compound 8 µM) of the same compound?
A: The relative viability was 0.359.

Q: And the relative viability (NCI-H1623; first compound 0.253 µM)?
A: Its relative viability is 0.572.

Q: What about the relative viability (NCI-H1623; first compound 0.8 µM) of the same compound?
A: The relative viability was 0.576.

Q: What about the relative viability (NCI-H1623; first compound 2.53 µM) of the same compound?
A: The relative viability was 0.601.

Q: And the relative viability (NCI-H1623; first compound 8 µM)?
A: The relative viability was 0.544.

Q: What about the relative viability (NCI-H460; first compound 0.253 µM) of the same compound?
A: The relative viability was 0.462.

Q: And the relative viability (NCI-H460; first compound 0.8 µM)?
A: Its relative viability is 0.522.

Q: What about the relative viability (NCI-H460; first compound 2.53 µM) of the same compound?
A: Its relative viability is 0.671.

Q: What about the relative viability (NCI-H460; first compound 8 µM) of the same compound?
A: The relative viability was 0.563.

Q: What about the relative viability (PC-3 [JPC-3]; first compound 0.253 µM) of the same compound?
A: The relative viability was 0.482.

Q: And the relative viability (PC-3 [JPC-3]; first compound 0.8 µM)?
A: The relative viability was 0.432.

Q: And the relative viability (PC-3 [JPC-3]; first compound 2.53 µM)?
A: The relative viability was 0.502.

Q: And the relative viability (PC-3 [JPC-3]; first compound 8 µM)?
A: The relative viability was 0.511.

Q: And the relative viability (LK-2; first compound 0.253 µM)?
A: Its relative viability is 0.575.

Q: What about the relative viability (LK-2; first compound 0.8 µM) of the same compound?
A: The relative viability was 0.262.

Q: And the relative viability (LK-2; first compound 2.53 µM)?
A: The relative viability was 0.656.

Q: What about the relative viability (LK-2; first compound 8 µM) of the same compound?
A: Its relative viability is 0.229.

Q: What about the relative viability (NCI-H1944; first compound 0.253 µM) of the same compound?
A: The relative viability was 0.213.

Q: What about the relative viability (NCI-H1944; first compound 0.8 µM) of the same compound?
A: The relative viability was 0.191.

Q: What about the relative viability (NCI-H1944; first compound 2.53 µM) of the same compound?
A: Its relative viability is 0.223.

Q: And the relative viability (NCI-H1944; first compound 8 µM)?
A: The relative viability was 0.174.

Q: What about the relative viability (NCI-H1755; first compound 0.253 µM) of the same compound?
A: Its relative viability is 0.627.

Q: What about the relative viability (NCI-H1755; first compound 0.8 µM) of the same compound?
A: The relative viability was 0.615.

Q: What about the relative viability (NCI-H1755; first compound 2.53 µM) of the same compound?
A: The relative viability was 0.682.

Q: What about the relative viability (NCI-H1755; first compound 8 µM) of the same compound?
A: The relative viability was 0.536.

Q: And the relative viability (NCI-H1650; first compound 0.8 µM)?
A: Its relative viability is 0.376.

Q: And the relative viability (NCI-H1650; first compound 2.53 µM)?
A: Its relative viability is 0.554.

Q: What about the relative viability (NCI-H1650; first compound 8 µM) of the same compound?
A: The relative viability was 0.483.

Q: What about the relative viability (NCI-H727; first compound 0.253 µM) of the same compound?
A: The relative viability was 0.613.

Q: What about the relative viability (NCI-H727; first compound 0.8 µM) of the same compound?
A: The relative viability was 0.53.

Q: What about the relative viability (NCI-H727; first compound 2.53 µM) of the same compound?
A: The relative viability was 0.505.

Q: What about the relative viability (NCI-H727; first compound 8 µM) of the same compound?
A: Its relative viability is 0.423.
